US11565003B2, “Mechanical opening of lipid bilayers by molecular nanomachines” (William Marsh Rice University, priority 2016, dated 2023)

Key:
[1] = tested on: PC-3 cells; experiment: UV-activated nanomechanical necrosis, live cell confocal microscopy, PC-3; assay type: cell-based, human; conditions: for Time of Full Necrosis / Time of Initial Necrosis / % acceleration for full necrosis: 355 nm UV; for % acceleration for full necrosis: versus UV upon blank cells
Protocol: (§1) Following the synthetic bilipid vesicle experiments, nanomechanical action upon live cells was studied using confocal microscopy aided by a super-resolution technique called Phase Modulation Nanoscopy. Applicants used two experimental methods. In the first method (Method A), the molecular motors were loaded into the cell media and the imaging was initiated within 5 minutes to 24 hours. In the second method, (Method B), the molecular motors were loaded into the cell media, incubated for 30 minutes to 24 hours, and then washed three times with fresh molecular motor-free media before imaging.
Next, Applicants used the smaller nanomachine, 3. Initial control experiments (blank) were performed without nanomachines being present. UV-induced (355 nm) PC-3 necrosis is not initiated until approximately scan 20 (corresponding to 300 second continuous scanning UV exposure, 400 nJ/voxel total dwell time), characterized by massive disruption and rupture of the mitochondrial network and subsequent well-pronounced auto-fluorescent signal detectable in the nucleoli and nucleus wall (FIG. 7A). This is observable by the nucleoli membrane permeabilization and DNA damage at the onset of necrosis. The UV-induced necrosis reaches final stages at approximately scan 40 (corresponding to 600 seconds) that is consistent with characteristic extracellular membrane rupture and homogenous cytosolic auto-fluorescence, indicating loss of cellular organelle boundaries.
(§2) Microscopy cells were seeded in untreated iBibi 100 μL live cell channels and allowed to grow to 40% to 60% confluence, at 37° C. in 5% CO2. At this stage, the medium was replaced and cells were treated with the studied nanomachines and co-stains as appropriate, with 0.1% DMSO (as detailed above) present in the final imaging medium. For live cell imaging, DMEM/F12 media (10% FBS) lacking phenol red was used from this point onwards. Following incubation, where Method B was used, the channels were washed with live cell imaging media and imaged using a purpose build incubator housing the microscope maintaining 37° C., 5% CO2 and 10% humidity.
(§3) All live cell imaging experiments used either NIH 3T3 mouse skin fibroblast cells, PC-3 cells, a grade 3 human prostate adenocarcinoma, or Chinese hamster ovary cells (CHO). These are all well-studied cell lines with discrete morphological compositions. Each molecular machine was used as a stock solution at 0.10 to 1.00 μM with total dimethyl sulfoxide (DMSO) concentrations not exceeding 0.1% in the final cell media in order to avoid unwanted cell membrane permeabilization, the DMSO being required for solubility of the organic nanomachines. All loading experiments are carried out in a light-suppressed manner and the possibility of induced or accelerated uptake due to interaction between the molecular motors and the applied co-stain has been eliminated using a series of individual and reversed loading experiments.
(§4) All experimental imaging parameters (i.e., laser beam size, confocal pinhole size, laser intensity, line scanning speed, scanning area (field of view, FOV), and line averaging sequences) were kept constant throughout the experiments. The accuracy and errors associated with the establishment of accelerated necrosis are determined based on one dual channel imaging sequence, which takes 15 seconds in total. This imaging sequence has been carefully established using untreated live cells.
Steady state fluorescence images were recorded using a PhMoNa enhanced Leica SP5 II LSCM equipped with a HCX PL APO 63×/1.40 NA LambdaBlue Oil immersion objective. As an initial control experiment to establish the UV-induced cell toxicity threshold, while mitigating voxel exposure and ensuring sufficient laser dwell time, an imaging sequence has been established to monitor cell morphological and physiological changes as a function of time. All experiments used cell-line-determined culture medium containing 0.1% DMSO. […]

[2] = tested on: NIH 3T3 cells; experiment: UV-activated nanomechanical necrosis, live cell confocal microscopy, NIH 3T3; assay type: cell-based, mouse; conditions: for Time of Full Necrosis / Time of Initial Necrosis / % acceleration for full necrosis: 355 nm UV; for % acceleration for full necrosis: versus UV upon blank cells
Protocol: as §1, with “imaging. […]” for “imaging.”
as §2, §3, §4
Steady state fluorescence images were recorded using a PhMoNa enhanced Leica SP5 II LSCM equipped with a HCX PL APO 63×/1.40 NA LambdaBlue Oil immersion objective. As an initial control experiment to establish the UV-induced cell toxicity threshold, while mitigating voxel exposure and ensuring sufficient laser dwell time, an imaging sequence has been established to monitor cell morphological and physiological changes as a function of time. All experiments used cell-line-determined culture medium containing 0.1% DMSO.
The applied 100 Hz detection sequence was based on a bidirectional dual-channel continuous scanning method where a minimalistic non-damaging visible laser light (458 nm, 0.2 mW) is used in conjunction with the above detailed UV exposure. This is set as a 2 line/scan accumulation parallel acquisition sequence that is recorded as a function of time. Studied channels correspond to transmission images and UV-induced mitochondrial auto-fluorescence detected at 460 to 550 nm. Applicants further confirmed that the effectiveness of monitoring the UV-activated nanomechanical action on live cells using a conventional CW mercury-arc excitation source equipped with an epi-fluorescence setup consisting of a Zeiss Axiovert 200M inverted microscope, as discussed in FIGS. 18A-C. […]

[3] = tested on: HEK293 cells; experiment: Whole cell patch clamp electrophysiology; assay type: cell-based, human
Protocol: FIGS. 16A-B show whole-cell patch clamp studies of the dynamic effects of UV-induced molecular mechanical action of compound 3 upon HEK293 cells. Also shown are control studies using compound 3 without UV activation, UV-exposed rotor-free control molecule 5, and no molecular additives x. Compounds 3 and 5 were used at 1.0 μM concentrations. […] Similarly, the rotor-free compound 5, and no molecular additive x, show no inward currents during UV illumination (center two traces). Cells were held at −70 mV in voltage clamp mode and UV exposure began 15 seconds after the start of the recording. Each recording is a biological replicate and all traces are shown (n=4 recordings from different cells for 3+UV; n=3 recordings from different cells for each other condition). […] The white arrows (lower right image) highlight membrane blebbing that appears only in the cells treated with UV-activated compound 3. The scale bar represents 10 μm and is applicable for each micrograph.
The dynamic effects of nanomechanical action upon cellular membranes were then studied through the whole cell patch clamp electrophysiology of human embryonic kidney 293 cells (HEK293) commonly used for electrophysiological interrogation. […] These inward currents were not observed in the absence of UV illumination or during UV illumination of non-rotor-bearing control 5 or UV illumination of untreated cells (FIG. 16A).

[4] = tested on: NIH 3T3 cells; experiment: Uptake, localization and toxicity of fluorescent nanomachines without UV-light exposure; assay type: cell-based, mouse
Protocol: as §1
Applicants first studied the effect of the nanomachines on the cells without UV-light exposure. […] However, due to 1 and 2 having well-pronounced visible fluorescence properties corresponding to the cy5 and BODIPY addends (FIGS. 5A-B and Table 1, respectively), their intracellular uptake, motion or protein/organelle-assisted trafficking are clearly observed. The two luminescent compounds display very different localization patterns.
Applicants undertook a series of control experiments to confirm active molecular motor uptake and suspected endocytosis, using a range of nanomachine loading concentrations (0.10-1.00 μM, Method A) and incubation times of 5-60 minutes at 4° C., which is a temperature of general endocytosis inhibition.

[5] = PC-3, Method B (washed three times)
[6] = NIH 3T3, Method B (washed three times)

C[C@@H]1Cc2ccc3ccccc3c2C1=C1c2cc(C#CCCn3cc(CCC(=O)N[C@@H](CC(=O)O)C(=O)NCC(=O)N[C@@H](CCC(=O)O)C(=O)N[C@@H](C)C(N)=O)nn3)ccc2Sc2ccc(C#CCCn3cc(CCC(=O)N[C@@H](CC(=O)O)C(=O)NCC(=O)N[C@@H](CCC(=O)O)C(=O)N[C@@H](C)C(N)=O)nn3)cc21 [Compound 7]
selectivity for targeted PC-3 cells over non-targeted control cells (in words) ([1]; NIH 3T3 and CHO as non-targeted controls): No selectivity was observed
Time of Full Necrosis ([1]; PC-3, Method A (no washing)): 360 s
Time of Initial Necrosis ([1]; PC-3, Method A (no washing)): 165 s
% acceleration for full necrosis ([1]; PC-3, Method A): 35%
Time of Full Necrosis [1, 5]: 390 s
Time of Initial Necrosis [1, 5]: 180 s
% acceleration for full necrosis ([1]; PC-3, Method B): 35%
Time of Full Necrosis ([2]; NIH 3T3, Method A (no washing)): 390 s
Time of Initial Necrosis ([2]; NIH 3T3, Method A (no washing)): 150 s
% acceleration for full necrosis ([2]; NIH 3T3, Method A): 40%
Time of Full Necrosis [2, 6]: 390 s
Time of Initial Necrosis [2, 6]: 165 s
% acceleration for full necrosis ([2]; NIH 3T3, Method B): 40%

O=c1c2cc(C#CCCO)ccc2sc2ccc(C#CCCO)cc12 [Compound 5, reference compound]
effect on necrosis upon standardized UV-exposure (in words) ([1]; PC-3, Method A): no effect on necrosis
Time of Full Necrosis ([1]; PC-3, Method A (no washing)): 600 s
Time of Initial Necrosis ([1]; PC-3, Method A (no washing)): 300 s
% acceleration for full necrosis ([1]; PC-3, Method A): 0%
effect on necrosis upon standardized UV-exposure (in words) ([2]; NIH 3T3, Method A): no effect on necrosis
Time of Full Necrosis ([2]; NIH 3T3, Method A (no washing)): 600 s
Time of Initial Necrosis ([2]; NIH 3T3, Method A (no washing)): 300 s
% acceleration for full necrosis ([2]; NIH 3T3, Method A): 0%
membrane currents without UV illumination (in words) ([3]; HEK293, 1.0 μM, 4 minute recording, no UV): no change in membrane currents
inward ionic currents during UV illumination (in words) ([3]; HEK293, Method B, UV 355 nm, 1.0 μM): not observed

OCCC#Cc1ccc2c(c1)C(=C1CCc3ccc4ccccc4c31)c1cc(C#CCCO)ccc1S2 [NonMe-3, reference compound]
Time of Full Necrosis ([1]; PC-3, Method A (no washing)): 540 s
Time of Initial Necrosis ([1]; PC-3, Method A (no washing)): 270 s
% acceleration for full necrosis ([1]; PC-3, Method A): 10%
effect on necrosis upon standardized UV-exposure (in words) ([1]; PC-3, Method A, listed as compound analogous to 3 but without the allylic methyl): only slightly faster than the motor-free system
effect on necrosis upon standardized UV-exposure (in words) ([1]; PC-3, Method A, listed as demethylated 3): slowed necrosis

C[C@@H]1CSc2ccc3ccccc3c2C1=C1c2cc(C#CCCO)ccc2Sc2ccc(C#CCCO)cc21 (racemic) [Compound 6, reference compound]
effect on necrosis upon standardized UV-exposure (in words) ([1]; PC-3, Method A): no enhanced necrosis
Time of Full Necrosis ([1]; PC-3, Method A (no washing)): 600 s
Time of Initial Necrosis ([1]; PC-3, Method A (no washing)): 300 s
% acceleration for full necrosis ([1]; PC-3, Method A): 0%
effect on necrosis upon standardized UV-exposure (in words) ([2]; NIH 3T3, Method A): no enhanced necrosis
Time of Full Necrosis ([2]; NIH 3T3, Method A (no washing)): 615 s
Time of Initial Necrosis ([2]; NIH 3T3, Method A (no washing)): 300 s
% acceleration for full necrosis ([2]; NIH 3T3, Method A): 0%

CC1=CC(C)=[N+]2C1=C(c1ccccc1C(=O)OCc1cn(CCC#Cc3ccc4c(c3)C(=C3c5c(ccc6ccccc56)C[C@H]3C)c3cc(C#CCCn5cc(COC(=O)c6ccccc6C6=C7C(C)=CC(C)=[N+]7[B-](F)(F)n7c(C)cc(C)c76)nn5)ccc3S4)nn1)c1c(C)cc(C)n1[B-]2(F)F (racemic) [Compound 2]
Time of Full Necrosis ([2]; NIH 3T3, Method A (no washing)): 585 s
Time of Initial Necrosis ([2]; NIH 3T3, Method A (no washing)): 300 s
% acceleration for full necrosis ([2]; NIH 3T3, Method A): 2.5%
Time of Full Necrosis [2, 6]: 570 s
Time of Initial Necrosis [2, 6]: 300 s
% acceleration for full necrosis ([2]; NIH 3T3, Method B): 5%
localized fluorescence at 4° C. (endocytosis inhibition) (in words) ([4]; NIH 3T3, 0.10-1.00 μM, 5-60 minutes, 4° C.): no detectable localized fluorescence
intracellular localization without UV (in words) ([4]; NIH 3T3, Method A, 0.10-1.00 μM): enters the cell and localizes in the mitochondria
necrosis without UV-light exposure (in words) ([4]; NIH 3T3, Method A, no UV): do not induce accelerated necrosis
toxicity in the applied time and concentration regimes (in words) ([4]; NIH 3T3, no UV): non-toxic

Cc1ccc(S(=O)(=O)OCCC#Cc2ccc3c(c2)C(=C2c4c(ccc5ccccc45)C[C@H]2C)c2cc(C#CCCOS(=O)(=O)c4ccc(C)cc4)ccc2S3)cc1 (racemic) [Compound 4]
Time of Full Necrosis ([1]; PC-3, Method A (no washing)): 540 s
Time of Initial Necrosis ([1]; PC-3, Method A (no washing)): 270 s
% acceleration for full necrosis ([1]; PC-3, Method A): 10%
Time of Full Necrosis ([2]; NIH 3T3, Method A (no washing)): 540 s
Time of Initial Necrosis ([2]; NIH 3T3, Method A (no washing)): 270 s
% acceleration for full necrosis ([2]; NIH 3T3, Method A): 10%
